PubChem BioAssay (NCI)
Several values for one entry are separate records, joined by “and”; a condition that tells them apart may be missing. Equal entries are not always repeated.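 Test compounds were applied to cells in 96-well plates for 48 hours at 5 doses. The concentration for 50% growth inhibition is given as GI50. TGI is the concentration that stops growth completely.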

Columns and labels:
Test in all cases: NCI-60 cell line screen, 48 h
786-0 renal = test system: 786-0 renal
A498 renal = test system: A498 renal
A549 NSCLC = test system: A549 NSCLC
ACHN renal = test system: ACHN renal
BT-549 breast = test system: BT-549 breast
CAKI-1 renal = test system: CAKI-1 renal
CCRF-CEM leukemia = test system: CCRF-CEM leukemia
COLO 205 colon = test system: COLO 205 colon
DU-145 prostate = test system: DU-145 prostate
EKVX NSCLC = test system: EKVX NSCLC
HCC-2998 colon = test system: HCC-2998 colon
HCT-116 colon = test system: HCT-116 colon
HCT-15 colon = test system: HCT-15 colon
HL-60(TB) leukemia = test system: HL-60(TB) leukemia
HOP-62 NSCLC = test system: HOP-62 NSCLC
HOP-92 NSCLC = test system: HOP-92 NSCLC
HS 578T breast = test system: HS 578T breast
HT29 colon = test system: HT29 colon
IGROV1 ovarian = test system: IGROV1 ovarian
K-562 leukemia = test system: K-562 leukemia
KM12 colon = test system: KM12 colon
LOX IMVI melanoma = test system: LOX IMVI melanoma
M14 melanoma = test system: M14 melanoma
MALME-3M melanoma = test system: MALME-3M melanoma
MCF7 breast = test system: MCF7 breast
MDA-MB-231 breast = test system: MDA-MB-231 breast
MDA-MB-435 = test system: MDA-MB-435
MDA-N = test system: MDA-N
MOLT-4 leukemia = test system: MOLT-4 leukemia
NCI-H226 lung = test system: NCI-H226 lung
NCI-H23 lung = test system: NCI-H23 lung
NCI-H460 lung = test system: NCI-H460 lung
NCI-H522 lung = test system: NCI-H522 lung
NCI/ADR-RES ovarian = test system: NCI/ADR-RES ovarian
OVCAR-3 ovarian = test system: OVCAR-3 ovarian
OVCAR-4 ovarian = test system: OVCAR-4 ovarian
OVCAR-5 ovarian = test system: OVCAR-5 ovarian
OVCAR-8 ovarian = test system: OVCAR-8 ovarian
PC-3 prostate = test system: PC-3 prostate
RPMI-8226 leukemia = test system: RPMI-8226 leukemia
RXF 393 renal = test system: RXF 393 renal
SF-268 CNS = test system: SF-268 CNS
SF-295 CNS = test system: SF-295 CNS
SF-539 CNS = test system: SF-539 CNS
SK-MEL-2 melanoma = test system: SK-MEL-2 melanoma
SK-MEL-28 melanoma = test system: SK-MEL-28 melanoma
SK-MEL-5 melanoma = test system: SK-MEL-5 melanoma
SK-OV-3 ovarian = test system: SK-OV-3 ovarian
SN12C renal = test system: SN12C renal
SNB-19 CNS = test system: SNB-19 CNS
SNB-75 CNS = test system: SNB-75 CNS
SR leukemia = test system: SR leukemia
SW-620 colon = test system: SW-620 colon
T-47D breast = test system: T-47D breast
TK-10 renal = test system: TK-10 renal
U251 CNS = test system: U251 CNS
UACC-257 melanoma = test system: UACC-257 melanoma
UACC-62 melanoma = test system: UACC-62 melanoma
UO-31 renal = test system: UO-31 renal

In the case of Nc1ccccc1NC(=O)c1ccc(CNC(=O)OCc2cccnc2)cc1, the GI50 (786-0 renal) was 4.96 µM, the TGI (786-0 renal) was > 90.9 µM and the GI50 (A498 renal) was 0.361 µM. For the same molecule, the TGI (A498 renal) was 2.98 µM and 4.14 µM, the TGI (A549 NSCLC) was > 100 µM and the GI50 (ACHN renal) was 2.34 µM. For the same molecule, the TGI (ACHN renal) was > 77.7 µM and 25.7 µM, the GI50 (BT-549 breast) was 4.14 µM and the TGI (BT-549 breast) was > 100 µM. For the same molecule, the GI50 (CAKI-1 renal) was 1.17 µM, the TGI (CAKI-1 renal) was 14.1 µM and > 59.5 µM and the GI50 (CCRF-CEM leukemia) was 1.94 µM. For the same molecule, the TGI (CCRF-CEM leukemia) was > 100 µM and 21.7 µM, the GI50 (COLO 205 colon) was 2.01 µM and the TGI (COLO 205 colon) was 8.37 µM and 3.03 µM. For the same molecule, the GI50 (DU-145 prostate) was 2.26 µM, the TGI (DU-145 prostate) was > 100 µM and the GI50 (EKVX NSCLC) was 3.26 µM. For the same molecule, the TGI (EKVX NSCLC) was > 100 µM, the TGI (HCC-2998 colon) was 5.44 µM and 9.79 µM and the GI50 (HCT-116 colon) was 0.798 µM. For the same molecule, the TGI (HCT-116 colon) was > 92 µM and 11.6 µM, the GI50 (HCT-15 colon) was 8.47 µM and the TGI (HCT-15 colon) was > 100 µM. The GI50 (HL-60(TB) leukemia) was 0.847 µM, the TGI (HL-60(TB) leukemia) was 26.6 µM and > 22.5 µM and the TGI (HOP-62 NSCLC) was > 90 µM. The GI50 (HOP-92 NSCLC) was 0.0382 µM, the GI50 (HS 578T breast) was 2.33 µM and the TGI (HS 578T breast) was > 100 µM. For the same molecule, the GI50 (HT29 colon) was 1.04 µM, the GI50 (IGROV1 ovarian) was 3.95 µM and the TGI (IGROV1 ovarian) was > 61.6 µM and 36.2 µM. For the same molecule, the GI50 (K-562 leukemia) was 0.505 µM, the TGI (K-562 leukemia) was > 100 µM and the GI50 (KM12 colon) was 4.31 µM. The TGI (KM12 colon) was > 100 µM, the GI50 (LOX IMVI melanoma) was 1.06 µM and the TGI (LOX IMVI melanoma) was 8.67 µM and 5.94 µM. For the same molecule, the GI50 (M14 melanoma) was 2.35 µM, the TGI (M14 melanoma) was > 100 µM and 15.5 µM and the GI50 (MALME-3M melanoma) was 0.577 µM and 0.267 µM. The TGI (MALME-3M melanoma) was > 23.6 µM and 2.39 µM, the GI50 (MCF7 breast) was 0.637 µM and the TGI (MCF7 breast) was > 100 µM. The GI50 (MDA-MB-231 breast) was 13.8 µM, the TGI (MDA-MB-231 breast) was > 100 µM and 25.6 µM and the GI50 (MDA-MB-435) was 0.956 µM. For the same molecule, the TGI (MDA-MB-435) was 14.8 µM and > 33.1 µM, the TGI (MDA-N) was 12.4 µM and the GI50 (MOLT-4 leukemia) was 1.93 µM. For the same molecule, the TGI (MOLT-4 leukemia) was > 85 µM, the GI50 (NCI-H226 lung) was 0.604 µM and the TGI (NCI-H226 lung) was 16.9 µM and 5.73 µM. For the same molecule, the GI50 (NCI-H23 lung) was 3.23 µM, the TGI (NCI-H23 lung) was > 89.4 µM and 14.9 µM and the GI50 (NCI-H460 lung) was 0.83 µM. For the same molecule, the TGI (NCI-H460 lung) was > 100 µM, the GI50 (NCI-H522 lung) was 0.698 µM and the TGI (NCI-H522 lung) was 7.41 µM and > 27.9 µM. For the same molecule, the GI50 (NCI/ADR-RES ovarian) was 2.38 µM, the TGI (NCI/ADR-RES ovarian) was > 67.4 µM and the GI50 (OVCAR-3 ovarian) was 1.74 µM. The TGI (OVCAR-3 ovarian) was 11.5 µM and 14.8 µM, the GI50 (OVCAR-4 ovarian) was 1.31 µM and the TGI (OVCAR-4 ovarian) was > 100 µM. For the same molecule, the GI50 (OVCAR-5 ovarian) was 1.05 µM, the TGI (OVCAR-8 ovarian) was > 100 µM and the TGI (PC-3 prostate) was > 100 µM. For the same molecule, the GI50 (RPMI-8226 leukemia) was 0.895 µM, the TGI (RPMI-8226 leukemia) was > 29.5 µM and 4.54 µM and the GI50 (RXF 393 renal) was 1.49 µM. The TGI (RXF 393 renal) was 6.31 µM and 27.6 µM, the GI50 (SF-268 CNS) was 1.86 µM and the TGI (SF-268 CNS) was 25 µM and > 74.7 µM. The GI50 (SF-295 CNS) was 2.57 µM, the TGI (SF-295 CNS) was > 39.8 µM and 16.6 µM and the GI50 (SF-539 CNS) was 3.19 µM. For the same molecule, the TGI (SF-539 CNS) was 78.7 µM and > 52.1 µM, the GI50 (SK-MEL-2 melanoma) was 1.1 µM and the TGI (SK-MEL-2 melanoma) was 15 µM and 3.2 µM. The GI50 (SK-MEL-28 melanoma) was 0.663 µM, the TGI (SK-MEL-28 melanoma) was 5.94 µM and > 45.4 µM and the GI50 (SK-MEL-5 melanoma) was 0.743 µM. For the same molecule, the TGI (SK-MEL-5 melanoma) was 2.31 µM and 2.3 µM, the GI50 (SK-OV-3 ovarian) was 2.75 µM and the TGI (SK-OV-3 ovarian) was > 100 µM. For the same molecule, the GI50 (SN12C renal) was 9.39 µM, the TGI (SN12C renal) was > 100 µM and the GI50 (SNB-19 CNS) was 6.33 µM. For the same molecule, the TGI (SNB-19 CNS) was > 100 µM and 75.2 µM, the TGI (SNB-75 CNS) was > 100 µM and the GI50 (SR leukemia) was 0.533 µM. For the same molecule, the TGI (SR leukemia) was > 100 µM, the GI50 (SW-620 colon) was 1.3 µM and the TGI (SW-620 colon) was 34.5 µM and > 100 µM. For the same molecule, the GI50 (T-47D breast) was 0.462 µM, the TGI (T-47D breast) was > 100 µM and the GI50 (TK-10 renal) was 0.289 µM. For the same molecule, the TGI (TK-10 renal) was 38.8 µM and > 100 µM, the GI50 (U251 CNS) was 2.03 µM and the TGI (U251 CNS) was > 39.5 µM and 5.74 µM. The TGI (UACC-257 melanoma) was > 29 µM, the GI50 (UACC-62 melanoma) was 0.278 µM and the TGI (UACC-62 melanoma) was 1.77 µM and 4.81 µM. The GI50 (UO-31 renal) was 1.17 µM and the TGI (UO-31 renal) was > 100 µM and 20.3 µM.
COc1ccc(C2Oc3ccc(Cl)cc3C=C2[N+](=O)[O-])cc1OC (stereo not given) was tested, and the TGI (786-0 renal) was 0.871 µM, the TGI (A498 renal) was 7.36 µM and the TGI (A549 NSCLC) was 5.04 µM. For the same molecule, the TGI (ACHN renal) was 2.77 µM, the TGI (BT-549 breast) was 2.62 µM and the TGI (CAKI-1 renal) was 3.93 µM. The TGI (CCRF-CEM leukemia) was 0.372 µM, the TGI (COLO 205 colon) was 4.41 µM and the TGI (DU-145 prostate) was 2.97 µM. The TGI (EKVX NSCLC) was 7.13 µM, the TGI (HCC-2998 colon) was 3.33 µM and the TGI (HCT-116 colon) was 1.62 µM. It also gave a TGI (HCT-15 colon) of 3.09 µM, a TGI (HL-60(TB) leukemia) of 0.47 µM and a TGI (HOP-62 NSCLC) of 3.12 µM. The TGI (HOP-92 NSCLC) was 4.33 µM, the TGI (HS 578T breast) was 15.5 µM and the TGI (IGROV1 ovarian) was 3.35 µM. For the same molecule, the TGI (K-562 leukemia) was 1.08 µM, the TGI (KM12 colon) was 2.86 µM and the TGI (LOX IMVI melanoma) was 1.43 µM. For the same molecule, the TGI (M14 melanoma) was 1.63 µM, the TGI (MALME-3M melanoma) was 4.28 µM and the TGI (MCF7 breast) was 3.39 µM. For the same molecule, the TGI (MDA-MB-231 breast) was 2.59 µM, the TGI (MDA-MB-435) was 1.21 µM and the TGI (MDA-N) was 1.11 µM. It also gave a TGI (MOLT-4 leukemia) of 0.733 µM, a TGI (NCI-H226 lung) of 4.24 µM and a TGI (NCI-H23 lung) of 4.35 µM. For the same molecule, the TGI (NCI-H460 lung) was 5.95 µM, the TGI (NCI-H522 lung) was 2.66 µM and the TGI (NCI/ADR-RES ovarian) was 2.12 µM. The TGI (OVCAR-3 ovarian) was 2.06 µM, the TGI (OVCAR-4 ovarian) was 3.46 µM and the TGI (OVCAR-5 ovarian) was 3.14 µM. The TGI (OVCAR-8 ovarian) was 2.64 µM, the TGI (PC-3 prostate) was 2.95 µM and the TGI (RPMI-8226 leukemia) was 0.608 µM. It also gave a TGI (RXF 393 renal) of 3.04 µM, a TGI (SF-268 CNS) of 5 µM and a TGI (SF-295 CNS) of 3.46 µM. For the same molecule, the TGI (SF-539 CNS) was 3.13 µM, the TGI (SK-MEL-2 melanoma) was 3.05 µM and the TGI (SK-MEL-28 melanoma) was 3.58 µM. The TGI (SK-MEL-5 melanoma) was 2.96 µM, the TGI (SK-OV-3 ovarian) was 6.11 µM and the TGI (SN12C renal) was 2.82 µM. It also gave a TGI (SNB-19 CNS) of 5.02 µM, a TGI (SNB-75 CNS) of 2.45 µM and a TGI (SR leukemia) of 0.307 µM. The TGI (SW-620 colon) was 0.497 µM, the TGI (T-47D breast) was 4.35 µM and the TGI (TK-10 renal) was 2.87 µM. For the same molecule, the TGI (U251 CNS) was 2.35 µM, the TGI (UACC-257 melanoma) was 4.07 µM and the TGI (UACC-62 melanoma) was 3.65 µM. It also gave a TGI (UO-31 renal) of 3.47 µM.
